Test results published in patent US6790824B1, “Cytokines having neurotrophic activity” (Biopharm Gesellschaft zur biotechnologischen Entwicklung …, priority 1997, dated 2004).

Tests used:
Format in all cases: cell-based
[1] = test system: chick ciliary ganglionic (CG) neurons; experiment: Survival of embryonic chick ciliary ganglionic (CG) neurons, 24 h, counting of surviving neurons; details: for CG neuron survival with further addition of TGF-β: TGF-β 2.5 ng/ml, CNTF non-saturating, OSM, LIF, IL-6 at 10 ng/ml; for support of CG neuron survival by the single cytokine: at 10 ng/ml, without TGF-β; for relative potency of TGF-β isoforms in the synergism with GDNF: not shown
Protocol: (§1) Embryonic chick ciliary (CG), dorsal root (DRG), and sympathetic (SG) ganglia at embryonic day(s) (E) 8, 10, and 12, were dissected, freed from nerve roots and connective tissue and collected in CME. Ganglia were incubated in trypsin (ICN), washed and dissociated by trituration using fire-polished Pasteur pipettes. Cultures were set up in 96-well microtiter plates (Costar, A/2), precoated with poly-L-ornithine and laminin at a density of 1,200-1,500 cells/well in DMEM supplemented with N1 additives, 0.25% BSA, and 0.1% PSN (DME/N1) and incubated at 37° C. in a 5% CO2 incubator.
(§2) At appropriate times (CG: 24 h, DRG: 48 h, SG: 72 h) cultures were fixed by addition of 2.5% glutardialdehyde in phosphate buffered saline (PBS). Numbers of surviving neurons were determined by direct counting of 30% of the surface area using phase contrast microscopy.
Phosphatidylinositol-specific phospholipase C (PIPLC) is an enzyme that specifically cleaves glycosyl-phosphatidylinositol (GPI) linkages. Embryonic chick ciliary ganglionic neurons (E8) were isolated and seeded as described before. Neurons were incubated for 1 h at 37° C. with 1) 100 mU PIPLC or II) 100 mU PIPLC+2 ng/ml TGFβ or III) without enzyme and then growth factors were added. The number of surviving neurons was determined 24 h later.

[2] = test system: embryonic chicken dorsal root ganglia (DRG) neurons; experiment: Survival of dissociated embryonic chick dorsal root ganglia (DRG) neurons, 48 h, counting of surviving neurons; details: for effect on DRG neuron survival when added together with GDF-5: factor at saturating concentration plus GDF-5 20 ng/ml, E8, 48 h
Protocol: Dissociated cultures of embryonic chicken dorsal root ganglia (DRG) were generated as described in details by Krieglstein and Unsicker (Neurochem. Res., 21(7) (1996) 843-850). Briefly, DRGs from white Leghorn chick embryos (day 8) were dissected in Ca^2+-Mg^2+ free Hanks' balanced salt solution. After incubation in 0.08% trypsin for 15 min ganglia were dissociated by trituration. Cells were seeded in polyomithin-laminin coated 96-well microtiter plates (A/2 Costar) at a density of 1,200 cells/well. Growth factors were applied at the time of plating in a final volume of […] Dulbecco's Modified Eagle's Medium supplemented with 0.25% bovine serum albumin, N1 additives and 100 U/ml penicillin. As a positive control, nerve growth factor (NGF) was used at the saturating concentration of 5 ng/ml. After 48 h of incubation at 37° C. in a humidified atmosphere containing 5% CO2, cultures were fixed with 2.5% glutaraldehyde. Neuronal cells were identified by their phase-bright and neurite-bearing morphologies and counted within 30% of the total surface area using phase contrast microscopy. In the first set of experiments we tested the survival promoting effect of several growth factors of the bone morphogenetic protein family.
as §1, §2
Dissociated cultures of embryonic chicken dorsal root ganglia (DRGs) were generated as described in details by Krieglstein and Unsicker (Dev. Brain. Rees. 93 (1996) 10-17). Briefly, DRGs were dissected in Ca^2+-Mg^2+ free Hank's balanced salt solution (CMF). After incubation in 0.08% trypsin (BioWhittaker) for 15 min, ganglia were dissociated by gentle trituration using fire-polished Pasteur pipettes. Cells in suspension (neuron/non-neuron ratio 1:2) were seeded in polyomithin-laminin coated 96-well microtiter plates (A/2 Costar) at a density of 1,200 cells/well. Growth factors were applied at the time of plating in a final volume of 50 μl Dulbecco's Modified Eagle's Medium supplemented with 0.25% bovine serum albumin, N1 additives (Bottenstein et al., Exp. Cell Res. 125 (1980) 183-190) and 100 U/ml penicillin. As a positive control, nerve growth factor (NGF) was used at the saturating concentration of 10 ng/ml. After 48 h of incubation at 37° C. in a humidified atmosphere containing 5% CO2, cultures were fixed with 2.5% glutaraldehyde in phosphate buffered saline (PBS). Neuronal cells were identified by their phase-bright and neurite-bearing morphologies and counted within 30% of the total surface area using phase contrast microscopy. All experiments were performed in at least triplicate in two independent experiments. Data are presented as mean±SEM. Statistical comparisons were made with student's double t-test, ANOVA and MicrocalOrigin software. Differences were considered statistically significant at *P<0.05, **P<0.01, **P<0.001.

[3] = test system: chick sympathetic ganglionic (SG) neurons; experiment: Survival of embryonic chick sympathetic ganglionic (SG) neurons, 72 h, counting of surviving neurons; details: E8, serum-free, factor added by itself
Protocol: as §1, §2

[4] = test system: rat embryonic mesencephalic dopaminergic neurons (E14); experiment: Survival of rat embryonic mesencephalic dopaminergic neurons, count of tyrosine hydroxylase (TH) immunoreactive neurons after 8 days; details: GDNF 10 ng/ml, TGF-β3 2 ng/ml, 8 days in culture
Protocol: FIG. 8 depicts the survival promoting effect of GDNF on rat embryonic mesencephalic dopaminergic neurons (E14) is dependent on the presence of TGF-β. Dissociated cultures were treated with GDNF (10 ng/ml), with GDNF in the presence of anti-TGF-β1, -β2, -β3 (10 μg/ml), with TGF-β3 (2 ng/ml) or without any growth factor added (control) for 8 days in culture. Numbers of dopaminergic neurons were determined by counting the numbers of tyrosine hydroxylase (TH) immunoreactive neurons.

[5] = test system: dopaminergic neurons in the ventral midbrain (mesencephalic cultures E14/DIV8); experiment: Survival of TH-immunoreactive neurons in mesencephalic cultures (E14/DIV8) treated with FGF-2; details: FGF-2 10 ng/ml, 8 days in culture
Protocol: FIG. 12 depicts the ffect of neutralizing endogenous TGF-β in mesencephalic neuron cul-tures. Numbers of surviving TH-immunoreactive neurons of mesencephalic cultures (E14/DIV8) after 8 days in culture treated with FGF-2 (10 ng/ml), medium only (control), in presence or absence of neutralizing antibodies to TGF-β1/-β2/-β3 (10 μg/ml). Data are given as mean±SEM (n=3), P-values are ***P<0.001 for increased survival as compared with control cultures and +P<0.05 or +++P<0.001 for decreased survival following antibody treatment.
Fibroblast growth factor (FGF)-2 is known to act as a neurotrophic factor for dopaminergic neurons in the ventral midbrain. […] As TGF-β is known to be a product of astroglial cells, it was tested whether TGF-β-neutralizing antibodies can abolish the neurotrophic effect of FGF-2 on cultured neurons derived from the embryonic midbrain floor.

[6] = PIPLC 0.1 U/ml prior to plating

## interleukin-6 [IL-6]
[1]
  CG neuron survival with further addition of TGF-β: did not increase the effects of these cytokines beyond background levels
  support of CG neuron survival by the single cytokine: did not support CG neurons

## epidermal growth factor [EGF]
[2]
  effect on DRG neuron survival when added together with GDF-5: synergistic or additive effects

## TGF-β1: isoform of TGF-β
[2]; E8, serum-free, factor added by itself
  DRG neuron survival, single factor in serum-free medium: virtually no survival promoting effect
[2]
  effect on DRG neuron survival when added together with GDF-5: synergistic or additive effects
[3]
  SG neuron survival, single factor in serum-free medium: virtually no survival promoting effect
[1]
  relative potency of TGF-β isoforms in the synergism with GDNF: equipotent

## TGF-β3: isoform of TGF-β
[2]
  effect on DRG neuron survival when added together with GDF-5: synergistic or additive effects
[1]
  relative potency of TGF-β isoforms in the synergism with GDNF: equipotent

## TGF-β2: isoform of TGF-β
[1]
  relative potency of TGF-β isoforms in the synergism with GDNF: equipotent

## transforming growth factor beta [TGF-β]
[4]
  survival of dopaminergic neurons relative to untreated control cultures: 200%
[1]; factor titrated in combination with 2 ng/ml of the other factor (GDNF/TGF-β), serum-free
  EC50 of the synergistic survival effect: 0.06 ng/mL
[1]; serum-free, each at the saturating amount of 2 ng/ml
  CG neuron survival, single factor in fully-defined medium: only marginal survival promoting effects

## transforming growth factor-a [TGF-α]
[2]
  effect on DRG neuron survival when added together with GDF-5: synergistic or additive effects

## fibroblast growth factor-2 [FGF-2]
[5]
  increase in survival of the cells compared to the negative control (medium alone): 1.7 fold
[2]
  effect on DRG neuron survival when added together with GDF-5: synergistic or additive effects

## Phosphatidylinositol-specific phospholipase C [PIPLC, reference compound]
[1]; [6]
  effect of PIPLC pretreatment on the survival promoting effect of CNTF: effectively reduced the survival promoting effect of CNTF
  effect of PIPLC pretreatment on the survival promoting effect of FGF-2: without affecting the survival promoting effect of FGF-2
  effect of PIPLC pretreatment on the survival promoting effect of GDNF with TGF-β: significantly reduced the survival promoting effect of GDNF in its combination with TGF-β
[1]; PIPLC pretreatment with 2 ng/ml TGF-β1
  effect of PIPLC pretreatment in the presence of TGF-β on the survival promoting effect of GDNF: the survival promoting effect of GDNF was maintained

## leukemia inhibiting factor [LIF]
[1]
  CG neuron survival with further addition of TGF-β: did not increase the effects of these cytokines beyond background levels
  support of CG neuron survival by the single cytokine: did not support CG neurons
